Data taken from US20260098030A1, “NEGATIVE ALLOSTERIC MODULATORS OF METABOTROPIC GLUTAMATE RECEPTOR 2” (Vanderbilt University, priority 2022, published 2026).

Experiments:
human mGlu2 = target: T1, human mGlu2 (Homo sapiens, UniProt Q14416); test: mGlu GIRK cell-based thallium flux assay, human mGlu2; settings: HEK-293 cells co-expressing human mGlu2 and GIRK, EC80 glutamate
T1 construct: expressed in transfected cells; host or cells: HEK-293 cells stably co-expressing GIRK channels
Protocol: (§1) Human embryonic kidney (HEK-293) cell lines stably co-expressing human or rat mGlu2 and G protein-coupled inwardly rectifying potassium (GIRK) channels, or human mGlu3 and GIRK, were used for in vitro evaluation of compound activity in thallium flux assay using a fluorescent thallium indicator dye.
(§2) The day before the assay, GIRK cells co-expressing human mGlu3, human or rat mGlu2, as described above, were plated in black-walled, clear-bottomed, amine-coated 384-well plates at a density of 15,000 cells/20 μL/well in the assay medium (glutamine-depleted basal DMEM supplemented with 10% dialyzed FBS, 20 mM HEPES, 1 mM sodium pyruvate). Cells were incubated at 37° C. in the presence of 5% CO2. The next day, assay buffer (Hanks balanced salt solution, 20 mM HEPES, 4.16 mM sodium bicarbonate, pH 7.2) was prepared to dilute compounds and Thallos AM fluorescent dye solution. The 2× Thallos dye solution (final concentration 0.34 μM to the cells) was prepared by mixing the dye stock (2.97 mM in DMSO) to 1:1 with 10% pluronic acid before adding to the assay buffer. Cells were washed with assay buffer using a microplate washer to remove the medium, resulting in 20 μL of buffer remaining in each well. Immediately, 20 μL of 2× Thallos dye solution was added to cells, and incubated for one hour at 25° C. During the cell dye loading incubation period, a 10-point concentration serial dilution of compound was created from a 10 mM DMSO compound stock by performing a 1:3 serial dilution in DMSO using the Bravo liquid handler. The 2× compound plate was generated by transferring 0.24 μL of the diluted compound in each well to a daughter plate using an Echo acoustic liquid handler. This is further diluted in 40 μL assay buffer, resulting in a range from 30 μM to 1.5 nM final concentration in the assay. The agonist plate (5×) was prepared to include EC80 glutamate concentration (a concentration to elicit 80% of a maximally effective glutamate concentration) in thallium buffer (125 mM […], 1 mM magnesium sulfate, 1.8 mM calcium sulfate, 5 mM glucose, 10 mM HEPES, pH 7.2, 12.5 mM thallium sulfate).
(§3) After dye-loading, cell plates were washed with assay buffer to remove excess extracellular dye using a microplate washer, resulting in 20 μL of buffer remaining in each well. After a ten-minute equilibration period, cell, compound and agonist plates were loaded into a Hamamatsu μCell kinetic imaging plate reader equipped with liquid handler to monitor fluorescence changes at 480 nm excitation and 540 nm emission settings. Briefly, after collection of baseline fluorescence, 20 μL of compound was added and incubated for two minutes and twenty seconds. This is immediately followed by adding 10 μL of glutamate-thallium buffer to the wells containing compound. The fluorescent signal was monitored an additional 2.5 minutes after the glutamate addition. Multiple reference wells containing no compound received either no glutamate (for a baseline reference), EC80 glutamate, or ECmax glutamate (for normalization to maximum response). Fluorescence was measured throughout the experiment at a frequency of 1 measurement per every 2 seconds before the glutamate addition and a frequency of 1 measurement per every 1 second after the glutamate addition. Each compound concentration series occurred one time in each plate, and replicates from two or three plates were used in each experimental run. Thallium solutions were handled and disposed of according to guidelines from the Vanderbilt University Chemical Safety department.
(§4) Data were normalized using a static ratio function (F/F0) by dividing every fluorescent measurement by the initial fluorescent value for the corresponding well. The increase in signal resulting from the glutamate/thallium addition of the second add was measured by determining the slope from 3 seconds to 13 seconds after the addition. […]

rat mGlu2 = target: T2, rat mGlu2 (Rattus norvegicus, UniProt P31421); test: mGlu GIRK cell-based thallium flux assay, rat mGlu2; settings: HEK-293 cells co-expressing rat mGlu2 and GIRK, EC80 glutamate
T2 construct: expressed in transfected cells; host or cells: HEK-293 cells stably co-expressing GIRK channels
T2 sequence (P31421 19-872): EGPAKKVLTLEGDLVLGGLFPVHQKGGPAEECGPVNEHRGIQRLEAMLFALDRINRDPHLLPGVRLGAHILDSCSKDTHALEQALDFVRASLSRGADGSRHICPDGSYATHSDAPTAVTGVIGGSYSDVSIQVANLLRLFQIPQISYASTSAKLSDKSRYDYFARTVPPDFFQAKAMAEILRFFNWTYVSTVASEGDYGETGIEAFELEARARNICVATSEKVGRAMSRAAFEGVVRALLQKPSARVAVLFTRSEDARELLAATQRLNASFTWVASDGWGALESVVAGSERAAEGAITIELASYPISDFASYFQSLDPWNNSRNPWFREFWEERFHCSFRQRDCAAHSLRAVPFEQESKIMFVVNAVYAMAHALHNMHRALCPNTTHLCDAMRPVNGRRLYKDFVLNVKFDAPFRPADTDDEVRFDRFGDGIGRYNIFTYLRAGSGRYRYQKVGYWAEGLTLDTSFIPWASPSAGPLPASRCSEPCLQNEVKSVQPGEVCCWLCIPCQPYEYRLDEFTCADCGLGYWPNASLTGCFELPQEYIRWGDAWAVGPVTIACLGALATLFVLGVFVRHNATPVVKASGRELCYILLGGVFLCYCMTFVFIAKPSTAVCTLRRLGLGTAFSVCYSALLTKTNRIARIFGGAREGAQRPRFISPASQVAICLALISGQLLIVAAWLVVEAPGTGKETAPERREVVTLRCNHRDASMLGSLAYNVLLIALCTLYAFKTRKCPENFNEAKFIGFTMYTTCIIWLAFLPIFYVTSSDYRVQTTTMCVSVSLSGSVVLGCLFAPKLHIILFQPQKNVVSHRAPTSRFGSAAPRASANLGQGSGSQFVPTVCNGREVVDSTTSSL
Protocol: as §1, §2, §3, §4

T1 sequence (Q14416 19-872): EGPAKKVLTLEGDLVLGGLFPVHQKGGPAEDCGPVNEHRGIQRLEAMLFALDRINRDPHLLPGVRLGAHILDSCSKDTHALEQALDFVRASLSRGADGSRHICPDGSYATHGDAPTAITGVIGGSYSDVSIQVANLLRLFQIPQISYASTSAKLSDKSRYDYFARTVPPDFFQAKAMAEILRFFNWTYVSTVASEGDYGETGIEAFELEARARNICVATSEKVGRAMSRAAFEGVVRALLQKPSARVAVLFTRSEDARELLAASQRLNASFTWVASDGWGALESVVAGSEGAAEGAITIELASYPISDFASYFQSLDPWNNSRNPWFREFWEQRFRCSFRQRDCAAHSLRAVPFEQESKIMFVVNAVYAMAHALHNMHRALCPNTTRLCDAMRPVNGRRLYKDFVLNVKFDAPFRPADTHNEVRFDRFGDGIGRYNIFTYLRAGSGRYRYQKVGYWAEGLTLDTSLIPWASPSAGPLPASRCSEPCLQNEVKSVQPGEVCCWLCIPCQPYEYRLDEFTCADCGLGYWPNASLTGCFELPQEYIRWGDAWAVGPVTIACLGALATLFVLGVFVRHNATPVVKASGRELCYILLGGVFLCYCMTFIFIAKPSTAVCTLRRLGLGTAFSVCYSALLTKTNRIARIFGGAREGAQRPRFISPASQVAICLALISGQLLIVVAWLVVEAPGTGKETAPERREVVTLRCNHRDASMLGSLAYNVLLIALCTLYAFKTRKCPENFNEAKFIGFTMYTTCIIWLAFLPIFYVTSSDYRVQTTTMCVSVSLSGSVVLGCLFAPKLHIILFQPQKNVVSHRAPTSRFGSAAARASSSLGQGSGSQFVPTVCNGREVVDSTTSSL

SMILES	IC50 (human mGlu2)	IC50 (rat mGlu2)
COc1ccc(-c2cc3c(cc2-c2cccc(C#N)c2)CNC3=O)cc1F [Compound 171, 3-(6-(3-fluoro-4-methoxyphenyl)-1-oxoisoindolin-5-yl)benzonitrile]	3.55 µM	
CCn1cc(-c2cc3c(cc2-c2ccc(F)cc2F)C(=O)NC3)cn1 [Compound 134, 6-(2,4-difluorophenyl)-5-(1-ethyl-1H-pyrazol-4-yl)isoindolin-1-one]	2.35 µM	
CC(C)NC(=O)c1cccc(-c2cc3c(cc2-c2ccc(F)cc2F)C(=O)NC3)c1 [Compound 118, 3-(6-(2,4-difluorophenyl)-1-oxoisoindolin-5-yl)-N-isopropylbenzamide]	1.99 µM	
N#Cc1cccc(-c2cc3c(cc2-c2ccc(OC(F)F)cc2F)C(=O)NC3)c1 [Compound 162, 3-(6-(4-(difluoromethoxy)-2-fluorophenyl)-1-oxoisoindolin-5-yl)benzonitrile]	0.891 µM	
N#Cc1cccc(-c2cc3c(cc2-c2c(F)cc(F)cc2F)C(=O)NC3)c1 [Compound 160, 3-(1-oxo-6-(2,4,6-trifluorophenyl)isoindolin-5-yl)benzonitrile]	0.218 µM	
O=C1NCc2cc(-c3cnn(C4COC4)c3)c(-c3ccc(F)cc3F)cc21 [Compound 155, 6-(2,4-difluorophenyl)-5-(1-(oxetan-3-yl)-1H-pyrazol-4-yl)isoindolin-1-one]	> 10 µM	
N#Cc1cccc(-c2cc3c(cc2-c2cc(C#N)ccc2F)C(=O)NC3)c1 [Compound 176, 3-(6-(3-cyanophenyl)-3-oxoisoindolin-5-yl)-4-fluorobenzonitrile]	> 10 µM	
Cn1ncc(-c2cc3c(cc2-c2ccc(F)cc2F)C(=O)NC3)c1C#N [Compound 115, 4-(6-(2,4-difluorophenyl)-1-oxoisoindolin-5-yl)-1-methyl-1H-pyrazole-5-carbonitrile]	0.234 µM	
O=C1NCc2cc(-c3cccc4c3CNC4=O)c(-c3ccc(F)cc3F)cc21 [Compound 136, 6′-(2,4-difluorophenyl)-[4,5′-biisoindoline]-1,1′-dione]	3.18 µM	
N#Cc1cccc(-c2cc3c(cc2-c2ccc(F)c(F)c2F)C(=O)NC3)c1 [Compound 139, 3-(1-oxo-6-(2,3,4-trifluorophenyl)isoindolin-5-yl)benzonitrile]	0.728 µM	
COc1ccc(-c2cc3c(cc2-c2cccc(C#N)c2)CNC3=O)c(Cl)c1 [Compound 173, 3-(6-(2-chloro-4-methoxyphenyl)-1-oxoisoindolin-5-yl)benzonitrile]	7.34 µM	
Cc1ccc(-c2cc3c(cc2-c2cccc(C#N)c2)CNC3=O)c(C)c1 [Compound 161, 3-(6-(2,4-dimethylphenyl)-1-oxoisoindolin-5-yl)benzonitrile]	4.59 µM	
N#Cc1cccc(-c2cc3c(cc2-c2ccc(F)c(F)c2)C(=O)NC3)c1 [Compound 158, 3-(6-(3,4-difluorophenyl)-1-oxoisoindolin-5-yl)benzonitrile]	3.73 µM	
CCn1cc(-c2cc3c(cc2-c2ccc(F)cc2F)C(=O)NC3)c(C(F)(F)F)n1 [Compound 129, 6-(2,4-difluorophcnyl)-5-(1-cthyl-3-(trifluoromethyl)-1H-pyrazol-4-yl)isoindolin-1-one]	0.767 µM	
COc1cc(C#N)ccc1-c1cc2c(cc1-c1cccc(C#N)c1)CNC2=O [Compound 166, 4-(6-(3-cyanophenyl)-3-oxoisoindolin-5-yl)-3-methoxybenzonitrile]	2.45 µM	
Cn1ccc(CCc2cc3c(cc2-c2ccc(F)cc2F)C(=O)NC3)n1 [Compound A1, 6-(2,4-difluorophenyl)-5-(2-(1-methyl-1H-pyrazol-3-yl)ethyl)isoindolin-1-one]	0.191 µM	
O=C1NCc2cc(-c3cc(F)c4ncccc4c3F)c(-c3ccc(F)cc3)cc21 [Compound 21, 5-(5,8-difluoroquinolin-6-yl)-6-(4-fluorophenyl)isoindolin-1-one]		3.81 µM

SMILES	IC50 (human mGlu2)	IC50 (rat mGlu2)
O=C1NCc2cc(C3=CCCNC3)c(-c3ccc(F)cc3)cc21 [Compound 61, 6-(4-fluorophenyl)-5-(1,2,5,6-tetrahydropyridin-3-yl)isoindolin-1-one]		> 10 µM
Cc1ccncc1-c1cc2c(cc1-c1ccc(F)cc1)C(=O)NC2 [Compound 48, 6-(4-fluorophenyl)-5-(4-methylpyridin-3-yl)isoindolin-1-one]		> 10 µM
O=C1NCc2cc(-c3c[nH]nc3C(F)(F)F)c(-c3ccc(F)cc3F)cc21 [Compound 114, 6-(2,4-difluorophenyl)-5-(3-(trifluoromethyl)-1H-pyrazol-4-yl)isoindolin-1-one]		> 10 µM
CN1CCC=C(c2cc3c(cc2-c2ccc(F)cc2)C(=O)NC3)C1 [Compound 57, 6-(4-fluorophenyl)-5-(1-methyl-1,2,5,6-tetrahydropyridin-3-yl)isoindolin-1-one]		> 10 µM
O=C1NCc2cc(C3=CCNCC3)c(-c3ccc(F)cc3)cc21 [Compound 60, 6-(4-fluorophenyl)-5-(1,2,3,6-tetrahydropyridin-4-yl)isoindolin-1-one]		> 10 µM
O=C1NCc2cc(-c3ccccn3)c(-c3ccc(F)cc3)cc21 [Compound 45, 6-(4-fluorophenyl)-5-(pyridin-2-yl)isoindolin-1-one]		> 10 µM
COc1cc(F)ccc1-c1cc2c(cc1-c1ccc(F)cc1F)C(=O)NC2 [Compound 105, 6-(2,4-difluorophenyl)-5-(4-fluoro-2-methoxyphenyl)isoindolin-1-one]		4.49 µM
N#Cc1ccc(-c2cc3c(cc2-c2ccc(F)cc2)C(=O)NC3)cn1 [Compound 33, 5-(6-(4-fluorophenyl)-1-oxoisoindolin-5-yl)picolinonitrile]		> 10 µM
CC1C=C(c2cc3c(cc2-c2ccc(F)cc2)C(=O)NC3)CC(C)N1 (stereo not shown) [Compound 62, 5-(2,6-dimethyl-1,2,3,6-tetrahydropyridin-4-yl)-6-(4-fluorophenyl)isoindolin-1-one]		> 10 µM
Cn1ccc(-c2cc3c(cc2-c2ccc(F)cc2F)C(=O)NC3)n1 [Compound 80, 6-(2,4-difluorophenyl)-5-(1-methyl-1H-pyrazol-3-yl)isoindolin-1-one]		1.09 µM
O=C1NCc2cc(-c3cccnc3F)c(-c3ccc(F)cc3F)cc21 [Compound 72, 6-(2,4-difluorophenyl)-5-(2-fluoropyridin-3-yl)isoindolin-1-one]		0.999 µM
COc1ncccc1-c1cc2c(cc1-c1ccc(F)cc1F)C(=O)NC2 [Compound 100, 6-(2,4-difluorophenyl)-5-(2-methoxypyridin-3-yl)isoindolin-1-one]		1.12 µM
O=C1NCc2cc(C3CCCCC3)c(-c3ccc(F)cc3)cc21 [Compound 63, 5-cyclohexyl-6-(4-fluorophenyl)isoindolin-1-one]		2.62 µM
O=C1NCc2cc(-c3ccc(C(F)(F)F)nc3)c(-c3ccc(F)cc3)cc21 [Compound 27, 6-(4-fluorophenyl)-5-(6-(trifluoromethyl)pyridin-3-yl)isoindolin-1-one]		> 10 µM
O=C1NCc2cc(-c3cnc4[nH]ccc4c3)c(-c3ccc(F)cc3)cc21 [Compound 38, 6-(4-fluorophenyl)-5-(1H-pyrrolo[2,3-b]pyridin-5-yl)isoindolin-1-one]		1.96 µM
N#Cc1cccc(-n2cc(-c3cc4c(cc3-c3ccc(F)cc3F)C(=O)NC4)cn2)c1 [Compound 99, 3-(4-(6-(2,4-difluorophenyl)-1-oxoisoindolin-5-yl)-1H-pyrazol-1-yl)benzonitrile]		> 10 µM
Cn1ccc(-c2cc3c(cc2-c2ccc(F)cc2)C(=O)NC3)n1 [Compound 35, 6-(4-fluorophenyl)-5-(1-methyl-1H-pyrazol-3-yl)isoindolin-1-one]		1.03 µM
